Data as given in patent publication US20170065667A1, “METHODS FOR SYNCHRONIZATION OF ESTROUS CYCLES AND OVULATION FOR FIXED TIME ARTIFICIAL INSEMINATION IN CATTLE” (Parnell Technologies Pty Ltd., priority 2014, published 2017).
Several values for one entry are separate records, joined by “and”; a condition that tells them apart may be missing. Equal values may be shown once. Read-outs that look alike come from different tables or passages of the source.

Columns and labels:
lactating dairy cows [1] = conditions: cited from earlier work; for percentage of cows with complete CL regression (<0.4 ng/mL 56 hours after PGF2α): 7 day Ovsynch
lactating dairy cows [2] = assay: Experiment 2: P/AI on 11 commercial dairies, Ovsynch vs. Ovsynch + second cloprostenol sodium injection; assay type: in vivo, cattle
Experimental: An experiment was performed on 11 commercial dairies in different locations in the United States: 3 dairies in Wisconsin; 3 dairies in California; 2 dairies in New York; 1 dairy in Pennsylvania; 1 dairy in New Mexico; and 1 dairy in Texas. Although overall management was quite different for each herd, each herd used the same reproductive management protocol during this experiment. Cows were randomly assigned within herd, parity, and date to one of three treatment groups at about 40 to about 46 days in milk. One of the treatment groups, Presynch-Ovsynch with heat detection, was not considered in the present analysis. Therefore only two treatment groups were utilized for all analyses, as shown in the diagram for Experiment 2 in FIG. 2.
All animals were synchronized using a GnRH composition (about 100 mcg of gonadorelin acetate per mL, GONAbreed®, Parnell Technologies Pty Ltd, Alexandria, Australia) and a PGF2α analog composition (about 250 mcg of cloprostenol sodium per mL, estroPLAN®, Parnell Technologies Pty Ltd, Alexandria, Australia).
(§1) One treatment group began at about 47 to about 53 days in milk where the cows received a first 1 mL intramuscular injection of a gonadorelin acetate composition. At about 54 to about 60 days in milk, the cows received a first 2 mL intramuscular injection of a cloprostenol sodium composition. At about 56 to about 62 days in milk (about 56 hours after the first injection of the cloprostenol sodium composition), the cows received a second 1 mL intramuscular injection of a gonadorelin acetate composition. And at about 57 to about 63 days in milk (about 16 hours after the second injection of the gonadorelin acetate composition), the animals received AI, concluding the Ovsynch phase.
as §1, with “The other treatment group” for “One treatment group”, “a first 2 mL intramuscular injection of a cloprostenol sodium composition. At about 55 to about 61 days in milk (about 24 hours after the first injection of the cloprostenol sodium composition), the cows received a second 2 mL” for “a first 2 mL”
Pregnancy diagnosis was performed with ultrasound utilizing the normal schedule for each herd (Wisconsin and Pennsylvania herds, 31-33 days after AI; California, New York, New Mexico, and Texas herds, 37-43 days after AI). Data on all treatments, AI, and pregnancy diagnosis were recorded for each individual cow in most cases (n=1,912). In some cows, data was extrapolated from other recorded data due to missing one treatment recording (n=110) or two or more treatment recordings in a cow (n=126). Pregnancy was based on a verified pregnancy diagnosis. Non-pregnancy was based on absence of pregnancy at a pregnancy diagnosis or a rebreeding to an estrus prior to pregnancy diagnosis. Statistical analyses were performed using PROC Logistic in SAS. Treatment and parity were forced into the model and factors were kept in the model if they were significant at P<0.15.

## O=C(O)CCC/C=C\CC1C(O)CC(O)C1/C=C/C(O)COc1cccc(Cl)c1 (centres unmarked) [cloprostenol sodium]
Lactating dairy cows [1]; dinoprost 25 mg, cloprostenol 0.5 mg
  percentage of cows with complete CL regression: 79%
Lactating dairy cows [1]; dose from 500 to 750 μg, 7 day protocol
  effect on CL regression of increasing the dose: increased CL regression in multiparous but not primiparous cows
Lactating dairy cows [2]; All Multiparous
  Effect of second cloprostenol sodium injection, Difference in P/AI: +10.65% (P = 0.073)
Lactating dairy cows [2]; Fourth or Greater lactation
  Effect of second cloprostenol sodium injection, Difference in P/AI: +0.09% (P = 0.517)
Lactating dairy cows [2]; Ovsynch (one cloprostenol sodium injection), farm CA-01
  P/AI, % (n/n): 29.4%
Lactating dairy cows [2]; Ovsynch (one injection), All Multiparous
  percentage of cows pregnant per AI: 32.01 (259/809) %
Lactating dairy cows [2]; Ovsynch (one injection), Fourth or Greater lactation
  percentage of cows pregnant per AI: 30.09 (65/216) %
Lactating dairy cows [2]; Ovsynch (one injection), Primiparous
  percentage of cows pregnant per AI: 37.07 (99/267) %
Lactating dairy cows [2]; Ovsynch (one injection), Second and Third lactation
  percentage of cows pregnant per AI: 32.71 (194/593) %
Lactating dairy cows [2]; Ovsynch (one injection), Total of 11 farms
  P/AI, % (n/n): 33.3%
Lactating dairy cows [2]; Ovsynch (one injection), farm CA-02
  P/AI, % (n/n): 35.3%
Lactating dairy cows [2]; Ovsynch (one injection), farm CA-O3
  P/AI, % (n/n): 30.4%
Lactating dairy cows [2]; Ovsynch (one injection), farm NM-04
  P/AI, % (n/n): 35.2%
Lactating dairy cows [2]; Ovsynch (one injection), farm NY-05
  P/AI, % (n/n): 32.7%
Lactating dairy cows [2]; Ovsynch (one injection), farm NY-06
  P/AI, % (n/n): 29.4%
Lactating dairy cows [2]; Ovsynch (one injection), farm PA-07
  P/AI, % (n/n): 39.2%
Lactating dairy cows [2]; Ovsynch (one injection), farm TX-08
  P/AI, % (n/n): 37.7%
Lactating dairy cows [2]; Ovsynch (one injection), farm WI-09
  P/AI, % (n/n): 28.1%
Lactating dairy cows [2]; Ovsynch (one injection), farm WI-10
  P/AI, % (n/n): 35.3%
Lactating dairy cows [2]; Ovsynch (one injection), farm WI-11
  P/AI, % (n/n): 26.9%
Lactating dairy cows [2]; Ovsynch + second cloprostenol sodium injection, farm CA-01
  P/AI, % (n/n): 36.4%
Lactating dairy cows [2]; Ovsynch + second injection, All Multiparous
  percentage of cows pregnant per AI: 35.42 (288/813) %
Lactating dairy cows [2]; Ovsynch + second injection, Fourth or Greater lactation
  percentage of cows pregnant per AI: 30.36 (68/224) %
Lactating dairy cows [2]; Ovsynch + second injection, Primiparous
  percentage of cows pregnant per AI: 38.22 (99/259) %
Lactating dairy cows [2]; Ovsynch + second injection, Second and Third lactation
  percentage of cows pregnant per AI: 37.35 (220/589) %
Lactating dairy cows [2]; Ovsynch + second injection, Total of 11 farms
  P/AI, % (n/n): 36.1%
Lactating dairy cows [2]; Ovsynch + second injection, farm CA-02
  P/AI, % (n/n): 39.8%
Lactating dairy cows [2]; Ovsynch + second injection, farm CA-O3
  P/AI, % (n/n): 34.1%
Lactating dairy cows [2]; Ovsynch + second injection, farm NM-04
  P/AI, % (n/n): 37.7%
Lactating dairy cows [2]; Ovsynch + second injection, farm NY-05
  P/AI, % (n/n): 31.2%
Lactating dairy cows [2]; Ovsynch + second injection, farm NY-06
  P/AI, % (n/n): 42.0%
Lactating dairy cows [2]; Ovsynch + second injection, farm PA-07
  P/AI, % (n/n): 43.6%
Lactating dairy cows [2]; Ovsynch + second injection, farm TX-08
  P/AI, % (n/n): 29.8%
Lactating dairy cows [2]; Ovsynch + second injection, farm WI-09
  P/AI, % (n/n): 40.4%
Lactating dairy cows [2]; Ovsynch + second injection, farm WI-10
  P/AI, % (n/n): 37.0%
Lactating dairy cows [2]; Ovsynch + second injection, farm WI-11
  P/AI, % (n/n): 26.9%
Lactating dairy cows [2]; Second and Third lactation
  Effect of second cloprostenol sodium injection, Difference in P/AI: +14.19% (P = 0.047)
Lactating dairy cows [2]; Total of 11 farms
  Effect of second cloprostenol sodium injection, relative difference in P/AI: +8.50%
Lactating dairy cows [2]; farm CA-01
  Effect of second cloprostenol sodium injection, relative difference in P/AI: +23.64%
Lactating dairy cows [2]; farm CA-02
  Effect of second cloprostenol sodium injection, relative difference in P/AI: +12.99%
Lactating dairy cows [2]; farm CA-O3
  Effect of second cloprostenol sodium injection, relative difference in P/AI: +12.03%
Lactating dairy cows [2]; farm NM-04
  Effect of second cloprostenol sodium injection, relative difference in P/AI: +7.04%
Lactating dairy cows [2]; farm NY-05
  Effect of second cloprostenol sodium injection, relative difference in P/AI: −4.47%
Lactating dairy cows [2]; farm NY-06
  Effect of second cloprostenol sodium injection, relative difference in P/AI: +43.11%
Lactating dairy cows [2]; farm PA-07
  Effect of second cloprostenol sodium injection, relative difference in P/AI: +10.98%
Lactating dairy cows [2]; farm TX-08
  Effect of second cloprostenol sodium injection, relative difference in P/AI: −20.86%
Lactating dairy cows [2]; farm WI-09
  Effect of second cloprostenol sodium injection, relative difference in P/AI: +43.75%
Lactating dairy cows [2]; farm WI-10
  Effect of second cloprostenol sodium injection, relative difference in P/AI: −4.94%
Lactating dairy cows [2]; farm WI-11
  Effect of second cloprostenol sodium injection, relative difference in P/AI: 0.0%
Lactating dairy cows [2]; primiparous
  Effect of second cloprostenol sodium injection, Difference in P/AI: +3.10% (P = 0.393)

## prostaglandin F2α [PGF]
Lactating dairy cows [1]; cows that ovulated to the first GnRH
  % of cows with CL regression: 79.4%
Lactating dairy cows [1]; cows with a d7 and a d14 CL
  % of cows not having complete CL regression: 8.2%
Lactating dairy cows [1]; cows with a single d7 CL
  % of cows not having complete CL regression: 35.6%
Lactating dairy cows [1]; cows with a single d14 CL
  % of cows not having complete CL regression: 3.0%
Lactating dairy cows [1]; cows without ovulation to the first GnRH
  % of cows with CL regression: 93%
Lactating dairy cows [1]; one PGF2α treatment (day 7)
  percentage of cows with complete CL regression (<0.4 ng/mL 56 hours after PGF2α): 84.6%
Lactating dairy cows [1]; resynchronized at 32 days after TAI with Ovsynch (Resynch-32)
  % of cows with complete CL regression (<0.4 ng/mL at 56 hours after PGF2α): 83.7%
Lactating dairy cows [1]; resynchronized with Double-Ovsynch
  % of cows with complete CL regression (<0.4 ng/mL at 56 hours after PGF2α): 89.1%
Lactating dairy cows [1]; single PGF2α treatment, Ovsynch-type protocols, literature
  % of cows with lack of complete / inadequate CL regression: 10 to 25% and 10-25%
Lactating dairy cows [1]; two PGF2α treatments (day 7 and day 8)
  percentage of cows with complete CL regression (<0.4 ng/mL 56 hours after PGF2α): 95.6%
Lactating dairy cows [2]; Total of 11 farms
  Effect of second cloprostenol sodium injection, relative difference in P/AI: 8.5%
Lactating dairy cows [2]; all results combined, 11 farms
  absolute improvement in fertility due to the second PGF treatment: ~3%
